Test results from US20090325959A1 (priority 2008, published 2009).
Where two headings read alike, the source gives them in different places.

What was measured:
[1] = target: T1, p70S6K human enzyme (Homo sapiens, UniProt P23443, T412E); assay: p70S6K inhibition assay (IMAP FP); format: biochemical;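 note: kinase reaction run at room temperature, phosphorylated substrate captured on IMAP beads and read as fluorescence polarization in mP, IC50 then converted to Ki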
T1 construct: purchased Upstate Chemicon 14-486

[2] = target: T2, ROCK2 (Homo sapiens, UniProt O75116); assay: Rho kinase inhibition assay (IMAP fluorescence polarization), ROCK2; format: biochemical;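 note: kinase reaction started with 10 µM ATP and run 60 min at room temperature, then phosphorylated substrate captured on IMAP beads for 30 min and fluorescence polarization read in mP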
T2 construct: purchased Upstate/Chemicon 14-451
Method: (§1) Following the pre-incubation, 10 μM ATP was added to initiate the reaction. After 60 minutes at room temperature, Molecular Devices IMAP™ binding solution was added to bind phosphorylated substrate. After 30 minutes of incubation in the presence of the IMAP™ beads, the fluorescence polarization was read and the ratio was reported as mP. IC50 values for compounds and EC50 values for ATP were calculated using the Prism software from Graphpad.

[3] = target: T3, Akt3 human enzyme (Homo sapiens, UniProt Q9Y243); assay: Akt3 inhibition assay (IMAP FP); format: biochemical;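 note: kinase reaction run 60 min at room temperature after 30 µM ATP start, phosphorylated substrate captured on IMAP beads and read as fluorescence polarization (mP)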
T3 construct: purchased Upstate Chemicon 14-502

[4] = Compound plasma concentrations in unsensitized mice at 15 min post administration; format: in vivo; conditions: mouse, 15 μmol/kg; mean compound plasma concentration in mice at 15 minutes post oral administration; read-out: Mouse Oral PK
[5] = target: T4, ROCK1 (Homo sapiens, UniProt Q13464); assay: Rho kinase inhibition assay (IMAP fluorescence polarization), ROCK1; format: biochemical;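 note: kinase reaction run 60 min at room temperature, then phosphorylated substrate captured on IMAP beads for 30 min, with fluorescence polarization read in mP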
T4 construct: purchased Upstate/Chemicon 14-601
Method: as §1

[6] = system: A-10 rat thoracic aorta cells; assay: PDGF-stimulated smooth muscle cell proliferation assay (BrdU incorporation); format: cell-based; conditions: A-10 cells, 10 ng/mL PDGF, BrdU incorporation, percent of total challenge-stimulated proliferation; for Percent of PDGF Induced Proliferation at 1 μM Avg: 1 μM test compound; for Percent of PDGF Induced Proliferation at 10 μM Avg: 10 μM test compound;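 for all read-outs here: cells kept in serum-free medium, BrdU allowed to incorporate for 24 h, then incorporated label detected fluorometrically with an anti-BrdU antibody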
[7] = 30 μM ATP, Ki=IC50/(1+([ATP Challenge]/EC50 ATP)), read-out: p70S6K Ki, Avg
[8] = average Ki, read-out: p70S6K Ki
[9] = 10 μM ATP, read-out: ROCK2 Ki, Avg
[10] = 30 μM ATP, Ki=IC50/(1+([ATP Challenge]/EC50 ATP)), read-out: Akt3 Ki, Avg

T2 sequence (O75116 11-552 limits assumed): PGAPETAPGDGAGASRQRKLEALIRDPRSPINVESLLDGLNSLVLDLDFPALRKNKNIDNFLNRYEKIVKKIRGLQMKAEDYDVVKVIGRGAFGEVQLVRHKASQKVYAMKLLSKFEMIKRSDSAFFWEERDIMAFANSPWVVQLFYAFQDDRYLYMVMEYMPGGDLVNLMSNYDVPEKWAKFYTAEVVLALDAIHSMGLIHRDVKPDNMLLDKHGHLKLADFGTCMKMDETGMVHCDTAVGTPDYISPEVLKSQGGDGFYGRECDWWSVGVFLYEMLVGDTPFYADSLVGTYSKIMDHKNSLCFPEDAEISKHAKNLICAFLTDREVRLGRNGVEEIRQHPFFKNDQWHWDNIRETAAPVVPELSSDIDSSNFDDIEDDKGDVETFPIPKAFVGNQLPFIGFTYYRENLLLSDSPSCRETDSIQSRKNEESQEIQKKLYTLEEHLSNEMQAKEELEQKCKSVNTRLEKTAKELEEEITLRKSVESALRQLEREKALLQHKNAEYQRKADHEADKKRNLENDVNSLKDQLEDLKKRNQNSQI
T4 sequence (Q13464 17-535 limits assumed): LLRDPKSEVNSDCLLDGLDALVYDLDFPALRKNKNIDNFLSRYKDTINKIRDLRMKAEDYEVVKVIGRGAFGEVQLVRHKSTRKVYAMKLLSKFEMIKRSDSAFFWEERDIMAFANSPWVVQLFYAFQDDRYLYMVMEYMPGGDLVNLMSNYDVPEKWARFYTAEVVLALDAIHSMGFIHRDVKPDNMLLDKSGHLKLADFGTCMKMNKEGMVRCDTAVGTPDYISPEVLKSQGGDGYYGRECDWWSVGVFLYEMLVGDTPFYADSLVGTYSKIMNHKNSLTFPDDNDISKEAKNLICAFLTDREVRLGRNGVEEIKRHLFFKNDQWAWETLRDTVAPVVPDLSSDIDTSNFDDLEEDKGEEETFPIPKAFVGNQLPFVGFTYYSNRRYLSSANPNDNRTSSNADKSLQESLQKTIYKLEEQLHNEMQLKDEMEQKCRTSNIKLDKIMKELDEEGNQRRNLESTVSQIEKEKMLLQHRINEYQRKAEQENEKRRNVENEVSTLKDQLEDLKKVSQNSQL
T1 sequence (P23443 1-421 T412E limits assumed): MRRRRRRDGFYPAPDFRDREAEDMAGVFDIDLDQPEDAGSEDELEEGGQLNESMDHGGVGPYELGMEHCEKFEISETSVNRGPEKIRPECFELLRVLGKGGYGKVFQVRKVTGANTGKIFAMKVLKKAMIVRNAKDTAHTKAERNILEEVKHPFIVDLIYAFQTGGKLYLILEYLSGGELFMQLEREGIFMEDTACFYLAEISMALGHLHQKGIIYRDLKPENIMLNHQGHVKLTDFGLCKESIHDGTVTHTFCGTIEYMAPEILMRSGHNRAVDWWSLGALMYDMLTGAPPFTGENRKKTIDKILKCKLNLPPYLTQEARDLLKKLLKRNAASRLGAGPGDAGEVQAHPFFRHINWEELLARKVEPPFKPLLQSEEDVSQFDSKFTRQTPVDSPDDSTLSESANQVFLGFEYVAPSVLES
T3 sequence (Q9Y243 whole entry): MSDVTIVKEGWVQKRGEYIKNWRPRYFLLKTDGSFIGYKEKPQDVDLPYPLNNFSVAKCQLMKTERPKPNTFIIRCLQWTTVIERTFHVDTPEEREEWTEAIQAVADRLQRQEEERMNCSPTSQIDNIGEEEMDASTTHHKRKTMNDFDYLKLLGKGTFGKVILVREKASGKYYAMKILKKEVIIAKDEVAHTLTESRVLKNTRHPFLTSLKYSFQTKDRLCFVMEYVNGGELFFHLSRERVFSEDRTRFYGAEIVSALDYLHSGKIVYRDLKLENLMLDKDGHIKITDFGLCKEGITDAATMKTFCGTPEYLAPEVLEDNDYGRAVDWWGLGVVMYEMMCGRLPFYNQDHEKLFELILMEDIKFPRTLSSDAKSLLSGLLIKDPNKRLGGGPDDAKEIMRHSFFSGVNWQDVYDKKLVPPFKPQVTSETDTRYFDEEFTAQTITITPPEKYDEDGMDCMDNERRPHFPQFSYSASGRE

SMILES | Ki [1, 7] | Ki [1, 8] | Ki [2, 9] | Ki ([2]; average Ki, read-out: ROCK2 Ki) | Ki [3, 10] | Ki ([3]; average Ki, read-out: Akt3 Ki) | concentration at 15 min [4] | Ki ([5]; Avg, 10 μM ATP) | Ki ([5]; average Ki) | Percent of PDGF Induced Proliferation at 1 μM Avg [6] | Percent of PDGF Induced Proliferation at 10 μM Avg [6]
CCS(=O)(=O)Nc1cc(CN2CC[C@@H](Nc3cccc4cnccc34)C2)ccc1C [Compound 2.054, (R)-N-(5-((3-(isoquinolin-5-ylamino)pyrrolidin-1-yl)methyl)-2-methylphenyl)ethanesulfonamide] | 0.439 µM | 0.439 µM | 0.0037 µM | 0.0037 µM | 0.415 µM | 0.415 µM | 0.765 µM | 0.0171 µM | 0.0171 µM | 68.2% | 84.6%
Cc1ccc(S(=O)(=O)Nc2cc(CN3CCC[C@H](Nc4ccc5[nH]ncc5c4)C3)ccc2C)cc1 [Compound 1.239, (S)-N-(5-((3-(1H-indazol-5-ylamino)piperidin-1-yl)methyl)-2-methylphenyl)-4-methylbenzenesulfonamide] | 10 µM | 10 µM | 0.0063 µM | 0.0063 µM | 17.7 µM | 17.7 µM | 0.259 µM | 0.283 µM | 0.283 µM | 41.7% | 37.8%
CS(=O)(=O)Nc1cc(CN2CCC[C@H](Nc3ccc4[nH]ncc4c3)C2)ccc1Cl [Compound 1.213, (S)-N-(5-((3-(1H-indazol-5-ylamino)piperidin-1-yl)methyl)-2-chlorophenyl)methanesulfonamide] | 2.1 µM | 2.1 µM | 0.003 µM | 0.003 µM | 3.21 µM | 3.21 µM | 0.396 µM | 0.106 µM | 0.106 µM | 70.1% | 52.3%
C#Cc1ccc(CN2CCC[C@@H](Nc3ccc4[nH]ncc4c3)C2)cc1 [Compound 1.076, (R)-N-(1-(4-ethynylbenzyl)piperidin-3-yl)-1H-indazol-5-amine] | 0.414 µM | 0.414 µM | 0.0026 µM | 0.0026 µM | 0.241 µM | 0.241 µM | 1.72 µM | 0.0143 µM | 0.0143 µM | 84.0% | 53.7%
c1ccc(CN2CC[C@@H](Nc3cccc4cnccc34)C2)cc1 [Compound 2.046, (R)-N-(1-benzylpyrrolidin-3-yl)isoquinolin-5-amine] | 0.759 µM | 0.759 µM | 0.0056 µM | 0.0056 µM | 1.98 µM | 1.98 µM | 0.488 µM | 0.0167 µM | 0.0167 µM | 57.4% | 32.1%
NC(=O)Cn1ccc2cc(CN3CCC[C@H](Nc4ccc5[nH]ncc5c4)C3)ccc21 [Compound 1.165, (S)-2-(5-((3-(1H-indazol-5-ylamino)piperidin-1-yl)methyl)-1H-indol-1-yl)acetamide] | 1.63 µM | 1.63 µM | 0.0034 µM | 0.0034 µM | 4.14 µM | 4.14 µM | 0.094 µM | 0.0507 µM | 0.0507 µM | 74.8% | 57.9%
c1cc2cc(CN3CCC[C@H](Nc4ccc5[nH]ncc5c4)C3)ccc2s1 [Compound 1.175, (S)-N-(1-(benzo[b]thiophen-5-ylmethyl)piperidin-3-yl)-1H-indazol-5-amine] | 0.853 µM | 0.853 µM | 0.0076 µM | 0.0076 µM | 2.82 µM | 2.82 µM | 1.13 µM | 0.0659 µM | 0.0659 µM | 58.2% | 49.0%
C#Cc1ccc(CN2CC[C@@H](Nc3cccc4cnccc34)C2)cc1 [Compound 2.031, (R)-N-(1-(4-ethynylbenzyl)pyrrolidin-3-yl)isoquinolin-5-amine] | 0.326 µM | 0.326 µM | 0.0053 µM | 0.0053 µM | 1.36 µM | 1.36 µM | 1.43 µM | 0.0146 µM | 0.0146 µM | 90.3% | 52.6%
COc1ccc(CN2CC[C@@H](Nc3cccc4cnccc34)C2)cc1 [Compound 2.047, (R)-N-(1-(4-methoxybenzyl)pyrrolidin-3-yl)isoquinolin-5-amine] | 0.437 µM | 0.437 µM | 0.007 µM | 0.007 µM | 1.94 µM | 1.94 µM | 0.003 µM | 0.0264 µM | 0.0264 µM | 65.3% | 53.8%
CC(=O)NCc1cccc(CN2CCC[C@H](Nc3ccc4[nH]ncc4c3)C2)c1 [Compound 1.197] | 8.69 µM | 8.69 µM | 0.005 µM | 0.005 µM | 64.1 µM | 64.1 µM | 0.453 µM | 0.12 µM | 0.12 µM | 52.5% | 48.9%
Clc1ccc(CN2CCC[C@@H](Nc3ccc4[nH]ncc4c3)C2)cc1 [Compound 1.132, (R)-N-(1-(4-chlorobenzyl)piperidin-3-yl)-1H-indazol-5-amine] | 0.515 µM | 0.515 µM | 0.0035 µM | 0.0035 µM | 0.0818 µM | 0.0818 µM | 0.982 µM | 0.0225 µM | 0.0225 µM | 48.9% | 30.3%
c1cc2ccc(CN3CCC[C@H](Nc4ccc5[nH]ncc5c4)C3)cc2[nH]1 [Compound 1.148, (S)-N-(1-((1H-indol-6-yl)methyl)piperidin-3-yl)-1H-indazol-5-amine] | 0.436 µM | 0.436 µM | 0.0036 µM | 0.0036 µM | 1.13 µM | 1.13 µM | 0.767 µM | 0.0243 µM | 0.0243 µM | 56.9% | 63.5%
CCS(=O)(=O)Nc1cc(CN2CCC[C@H](Nc3ccc4[nH]ncc4c3)C2)ccc1C [Compound 1.253, (S)-N-(5-((3-(1H-indazol-5-ylamino)piperidin-1-yl)methyl)-2-methylphenyl)ethanesulfonamide] | 2.51 µM | 2.51 µM | 0.0017 µM | 0.0017 µM | 2.6 µM | 2.6 µM | 0.24 µM | 0.0599 µM | 0.0599 µM | 44.8% | 47.9%
